Values belong to the molecule of their own block, whether it stands above or below them.
Test: solvent given as SMILES

fluorescence lifetime (in CC#N): 3.93 ns
SMILES: COc1ccc(-c2csc(/C(C#N)=C/c3ccccc3Cl)n2)cc1

fluorescence lifetime (in ClCCl): 1.31 ns
SMILES: COc1ccc(/C=C/C2=[O+][B-](F)(F)OC(/C=C/c3ccc(OC)cc3)=C2c2ccc(OC)cc2)cc1

fluorescence lifetime (in CC#N): 7.5 ns
fluorescence lifetime (in CO): 9.9 ns
fluorescence lifetime (in ClCCl): 6.3 ns
fluorescence lifetime (in OCC(O)CO): 11 ns
SMILES: CCCn1c2cccc3c2[c+]2c4c1cccc4n(CCC)c1cccc(c12)n3CCC

fluorescence lifetime (in CCO): 3.19 ns
fluorescence lifetime (in O): 2.23 ns
SMILES: CN(C)c1ccc2c(-c3ccc(N)cc3C(=O)[O-])c3ccc(=[N+](C)C)cc-3oc2c1

SMILES: COC(=O)/C(C#N)=c1\s/c(=c2/s/c(=C(/C#N)C(=O)OC)c3cc(-c4ccc(F)cc4)sc23)c2sc(-c3ccc(F)cc3)cc12
fluorescence lifetime (in Cc1ccccc1): 2.9 ns

SMILES: CC(=O)c1nc(-c2ccc(N(C)C)cc2)oc1C
fluorescence lifetime (in CC#N): 1.91 ns
fluorescence lifetime (in CCO): 1.66 ns
fluorescence lifetime (in CCOC(C)=O): 1.87 ns
fluorescence lifetime (in CCOCC): 1.64 ns
fluorescence lifetime (in ClCCl): 3.68 ns

fluorescence lifetime (in ClCCl): 1.4 ns
SMILES: F[B-]1(F)OC(c2ccccc2)=Cc2cc3[n+](c[n+]21)[B-](F)(F)OC(c1ccccc1)=C3

fluorescence lifetime (in ClCCl): 6.71 ns
SMILES: CC1=C2c3ccccc3C(c3ccc[nH]3)=[N+]2[B-](F)(F)n2cccc21

fluorescence lifetime (in C1CCCCC1): 0.1 ns
SMILES: CC(=O)c1ccc(-c2nc3ccc(N(C)C)c(Br)c3s2)cc1

fluorescence lifetime (in CC#N): 0.93 ns
SMILES: COc1cccc(/C=C/c2ccccc2)c1

fluorescence lifetime (in CS(C)=O): 7.96 ns
SMILES: CCCCCCCCn1c2ccccc2c(=O)c2ccccc21

fluorescence lifetime (in ClCCl): 4.69 ns
SMILES: COc1ccc(-c2cc3c(s2)c(-c2ccccc2)cc(=O)n3C)cc1

fluorescence lifetime (in C1CCCCC1): 4.21 ns
fluorescence lifetime (in CCOC(C)=O): 4.41 ns
fluorescence lifetime (in CO): 4.44 ns
SMILES: Cc1ccccc1C1=C2C=c3c(oc4ccccc34)=[N+]2[B-](F)(F)n2c1cc1c3ccccc3oc12

fluorescence lifetime (in C1CCOC1): 1.29 ns
fluorescence lifetime (in CC#N): 1.29 ns
fluorescence lifetime (in CN(C)C=O): 1.38 ns
fluorescence lifetime (in ClC(Cl)Cl): 1.36 ns
fluorescence lifetime (in c1ccccc1): 1.45 ns
SMILES: COc1ccc(C#Cc2ccc(C#Cc3ccc(C#Cc4ccccc4C#N)cc3C#N)cc2C#N)cc1

fluorescence lifetime (in ClCCl): 3.02 ns
SMILES: ClP1(Cl)=N[P@](Cl)(Oc2ccc3ccc4cccc5ccc2c3c45)=N[P@@](Cl)(Oc2ccc3ccc4cccc5ccc2c3c45)=N1

SMILES: CC(C)(C)c1ccc(N2c3ccc(C(C)(C)C)cc3B3c4cc(C(C)(C)C)ccc4N(c4ccc(C(C)(C)C)cc4)c4cc(-n5c6ccc(C(C)(C)C)cc6c6cc(C(C)(C)C)ccc65)cc2c43)cc1
fluorescence lifetime (in Cc1ccccc1): 6.02 ns

fluorescence lifetime (in CC#N): 1.44 ns
fluorescence lifetime (in CCCCCC): 0.45 ns
fluorescence lifetime (in CO): 0.36 ns
fluorescence lifetime (in CS(C)=O): 0.67 ns
fluorescence lifetime (in ClCCl): 0.25 ns
SMILES: COc1ccc(-c2nc3c(c4c2-c2ccccc2CC4)-c2ccccc2CC3)cc1

SMILES: FC(F)(F)c1cc2n(n1)[B-]1(c3ccccc3-c3ccccc31)[n+]1ccc3ccccc3c1-2
fluorescence lifetime (in C1CCCCC1): 1.22 ns
fluorescence lifetime (in Cc1ccccc1): 1.22 ns
fluorescence lifetime (in ClCCl): 13.7 ns

fluorescence lifetime (in CCCCCC): 5.54 ns
fluorescence lifetime (in CCCCCCCCO): 4.91 ns
fluorescence lifetime (in CCOC(C)=O): 5.21 ns
fluorescence lifetime (in CN(C)C=O): 4.8 ns
SMILES: CC1=CC(C)=[N+]2C1=Cc1c3ccccc3c(C#Cc3ccsc3)n1[B-]2(F)F

SMILES: F[B-]1(F)Oc2ccccc2-c2cc(-n3c4ccc(-c5ccccc5)cc4c4cc(-c5ccccc5)ccc43)cc[n+]21
fluorescence lifetime (in O=P(c1ccccc1)(c1ccccc1)c1ccccc1Oc1ccccc1P(=O)(c1ccccc1)c1ccccc1): 6.3 ns

fluorescence lifetime (in C1COCCO1): 0.33 ns
fluorescence lifetime (in CC#N): 0.76 ns
fluorescence lifetime (in CCCCCC): 0.34 ns
fluorescence lifetime (in CCCCCCC): 0.35 ns
fluorescence lifetime (in CCCO): 0.6 ns
fluorescence lifetime (in CCOC(C)=O): 0.38 ns
fluorescence lifetime (in CS(C)=O): 1.1 ns
fluorescence lifetime (in ClC(Cl)Cl): 0.38 ns
fluorescence lifetime (in ClCCl): 0.46 ns
SMILES: COc1ccc(C#Cc2ccc(C#N)cc2)cc1

SMILES: COc1ccc2c(=O)c3c([nH]c2c1)-c1ccccc1NC3(C)C
fluorescence lifetime (in C1CCOC1): 8.25 ns
fluorescence lifetime (in CC#N): 9.16 ns
fluorescence lifetime (in CCCCO): 10.2 ns
fluorescence lifetime (in CCCO): 10.1 ns
fluorescence lifetime (in CCO): 9.74 ns
fluorescence lifetime (in CCOC(C)=O): 8.04 ns
fluorescence lifetime (in CN(C)C=O): 10.5 ns
fluorescence lifetime (in CO): 9.35 ns
fluorescence lifetime (in CS(C)=O): 11.4 ns
fluorescence lifetime (in Cc1ccccc1): 7.24 ns
fluorescence lifetime (in ClC(Cl)(Cl)Cl): 5.08 ns
fluorescence lifetime (in ClCCl): 9.46 ns
fluorescence lifetime (in O): 7.42 ns
fluorescence lifetime (in c1ccccc1): 7.52 ns

fluorescence lifetime (in C1CCOC1): 4.7 ns
SMILES: c1ccc(/C(=C(\c2ccccc2)c2ccccc2-c2ccccc2)c2ccccc2-c2ccccc2)cc1

SMILES: COc1nnc(Cl)nn1
fluorescence lifetime (in ClCCl): 160 ns

fluorescence lifetime (in C1CCCCC1): 10 ns
SMILES: COc1ccc([Si](C)(C)C)c2ccccc12

fluorescence lifetime (in O): 2.56 ns
SMILES: CCN(CC)c1ccc2c(c1)C(C)(C)C(=O)C=C2

fluorescence lifetime (in C1CCCCC1): 1.6 ns
fluorescence lifetime (in CC#N): 4.2 ns
fluorescence lifetime (in CCO): 2.8 ns
fluorescence lifetime (in c1ccccc1): 2.8 ns
SMILES: CNc1cccc2c1C(=O)c1ccccc1-2

Reference: the Deep4Chem optical property database
